From US8476253B2, “Amide derivative” (Daiichi Sankyo Company, Limited, priority 2009, dated 2013)
Counter-ions that a name gives are not always drawn. Like-named read-outs stand apart in the source and are kept apart here.

Tests used:
substance P receptor = target: T1, substance P receptor (Cavia porcellus, UniProt P30547); experiment: Test for binding to guinea-pig substance P receptor (crude lung membrane sample)
T1 construct: A preparation of a crude lung membrane sample was prepared; from tissue; host or cells: guinea-pig lung (crude membrane sample)
Description: A preparation of a crude lung membrane sample was prepared, and a test for binding of a test substance to the sample was performed according to the method described in EP0336230A2.
The binding effect of the test substance to a substance P receptor was calculated as an affinity (Ki) of the test substance for the substance P receptor from a 50% binding concentration (IC50) and an affinity (Kd) of [^3H]substance P for the substance P receptor.

muscarine M3 receptor = experiment: Effect of suppressing methacholine-induced airway contraction (in vivo, intratracheal administration); parameters: species or system guinea pig; settings: guinea pigs, intratracheal administration 60 minutes before 30 μg/kg i.v. methacholine; AUC of increase in airway pressure over 10 minutes
Summary of the method: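 Anesthetized, gallamine-paralysed, ventilated male Hartley guinea pigs (350–550 g); compound in 5% glucose given intratracheally 60 min before 30 μg/kg i.v. methacholine. Airway pressure AUC over 10 min scored; ID50 from inhibition versus 5% glucose vehicle group.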

neurokinin NK1 receptor = target: T2, neurokinin NK1 receptor (Cavia porcellus, UniProt P30547); experiment: Effect of suppressing substance P-induced airway contraction (in vivo, intratracheal administration); parameters: species or system guinea pig; settings: guinea pigs, intratracheal administration 60 minutes before 20 μg/kg i.v. SP, AUC of increase in airway pressure over 10 minutes; for ED50: guinea pig, read-out: ID50 (the source's name)
T2 construct: Using healthy guinea pigs (body weight, 350 to 550 g; Hartley male guinea pigs); from tissue; host or cells: live anaesthetised Hartley male guinea pigs (airway, in vivo)
Summary of the method: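 Anaesthetised, gallamine-paralysed, ventilated male Hartley guinea pigs; compound in 5% glucose given intratracheally 60 min before 20 μg/kg i.v. substance P. Airway-pressure increase AUC over 10 min, inhibition versus vehicle group, expressed as ID50.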

[1] = crude guinea-pig lung membrane sample, [3H]substance P, Ki from IC50 and Kd, read-out: Ki

T2 sequence (P30547 whole entry): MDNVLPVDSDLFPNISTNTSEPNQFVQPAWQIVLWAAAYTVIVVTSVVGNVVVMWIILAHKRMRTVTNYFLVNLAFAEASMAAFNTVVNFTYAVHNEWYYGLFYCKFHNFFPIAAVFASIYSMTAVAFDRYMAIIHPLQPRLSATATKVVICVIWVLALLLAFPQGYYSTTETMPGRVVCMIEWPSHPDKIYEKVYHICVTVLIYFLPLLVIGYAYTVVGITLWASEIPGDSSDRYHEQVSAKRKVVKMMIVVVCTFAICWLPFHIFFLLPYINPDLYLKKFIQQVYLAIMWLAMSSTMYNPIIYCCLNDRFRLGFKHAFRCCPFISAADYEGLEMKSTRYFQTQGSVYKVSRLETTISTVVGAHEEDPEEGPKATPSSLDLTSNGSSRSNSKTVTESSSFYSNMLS
T1 sequence (P30547 whole entry): as above

SMILES	Ki (substance P receptor; [1])	ID50 (muscarine M3 receptor)	ED50 (neurokinin NK1 receptor)	ID50 (neurokinin NK1 receptor)	Ki (substance P receptor)
CN(CCCCCC(=O)N(C)CCN1CCC(OC(=O)Nc2ccccc2-c2ccccc2)CC1)Cc1ccc(C(=O)N(C)CCCN(C)C(=O)CO[C@H]2Cc3ccccc3C23CCN(CC[C@@]2(c4ccc(F)cc4)CN(C(=O)c4cc(C(F)(F)F)cc(C(F)(F)F)c4)CO2)CC3)cc1 [Example 74, 1-{2-[{6-[{4-[{3-[({[(2S)-1′-{2-[(5R)-3-[3,5-Bis(trifluoromethyl)benzoyl]-5-(4-fluorophenyl)-1,3-oxazolidin-5-yl]ethyl}-2,3-dihydrospiro[indene-1,4′-piperidin]-2-yl]oxy}acetyl)(methyl)amino]propyl}(methyl)carbamoyl]benzyl}(methyl)amino]hexanoyl}(methyl)amino]ethyl}piperidin-4-yl biphenyl-2-ylcarbamate]	0.87 nM	43.0 µg/kg	0.0174 mg/kg	–	–
CN(CCN1CCC(OC(=O)Nc2ccccc2-c2ccccc2)CC1)C(=O)CCCCCN(C)c1ccc(C(=O)N(C)CCCN(C)C(=O)CO[C@H]2Cc3ccccc3C23CCN(CC[C@@]2(c4ccc(F)cc4)CN(C(=O)c4cc(C(F)(F)F)cc(C(F)(F)F)c4)CO2)CC3)cc1 [Example 76, 1-{2-[{6-[{4-[{3-[({[(2S)-1′-{2-[(5R)-3-[3,5-Bis(trifluoromethyl)benzoyl]-5-(4-fluorophenyl)-1,3-oxazolidin-5-yl]ethyl}-2,3-dihydrospiro[indene-1,4′-piperidin]-2-yl]oxy}acetyl)(methyl)amino]propyl}(methyl)carbamoyl]phenyl}(methyl)amino]hexanoyl}(methyl)amino]ethyl}piperidin-4-yl biphenyl-2-ylcarbamate]	2.7 nM	29.2 µg/kg	0.0622 mg/kg	–	–
CN(CCN1CCC(OC(=O)Nc2ccccc2-c2ccccc2)CC1)C(=O)CCCCCNc1ccc(N(C)C(=O)CCCN(C)C(=O)CO[C@H]2Cc3ccccc3C23CCN(CC[C@@]2(c4ccc(F)cc4)CN(C(=O)c4cc(C(F)(F)F)cc(C(F)(F)F)c4)CO2)CC3)cc1 [Example 84, 1-(2-{[6-({4-[{-4-[({[(2S)-1′-{2-[(5R)-3-[3,5-Bis(trifluoromethyl)benzoyl]-5-(4-fluorophenyl)-1,3-oxazolidin-5-yl]ethyl}-2,3-dihydrospiro[indene-1,4′-piperidin]-2-yl]oxy}acetyl)(methyl)amino]butanoyl}(methyl)amino]phenyl}amino)hexanoyl](methyl)amino}ethyl)piperidin-4-yl biphenyl-2-ylcarbamate trihydrochloride]	2.7 nM	14.3 µg/kg	0.0357 mg/kg	–	–
CN(CCN1CCC(OC(=O)Nc2ccccc2-c2ccccc2)CC1)C(=O)CCCCCNc1nc2ccc(C(=O)N(C)CCCN(C)C(=O)CO[C@H]3Cc4ccccc4C34CCN(CC[C@@]3(c5ccc(F)cc5)CN(C(=O)c5cc(C(F)(F)F)cc(C(F)(F)F)c5)CO3)CC4)cc2s1 [Example 93, 1-(2-{[6-({6-[{3-[({[(2S)-1′-{2-[(5R)-3-[3,5-Bis(trifluoromethyl)benzoyl]-5-(4-fluorophenyl)-1,3-oxazolidin-5-yl]ethyl}-2,3-dihydrospiro[indene-1,4′-piperidin]-2-yl]oxy}acetyl)(methy)amino]propyl}(methyl)carbamoyl]-1,3-benzothiazol-2-yl}amino)hexanoyl](methyl)amino}ethyl)piperidin-4-yl biphenyl-2-ylcarbamate]	1 nM	37.2 µg/kg	–	41.6 µg/kg	–
CN(CCN1CCC(OC(=O)Nc2ccccc2-c2ccccc2)CC1)C(=O)CCNc1ccc(C(=O)N(C)CCCN(C)C(=O)CO[C@H]2Cc3ccccc3C23CCN(CC[C@@]2(c4ccc(F)cc4)CN(C(=O)c4cc(C(F)(F)F)cc(C(F)(F)F)c4)CO2)CC3)cc1 [Example 94, 1-{2-[(N-{4-[{3-[({[(2S)-1′-{2-[(5R)-3-[3,5-Bis(trifluoromethyl)benzoyl]-5-(4-fluorophenyl)-1,3-oxazolidin-5-yl]ethyl}-2,3-dihydrospiro[indene-1,4′-piperidin]-2-yl]oxy}acetyl)(methyl)amino]propyl}(methyl)carbamoyl]phenyl}-β-alanyl)(methyl)amino]ethyl}piperidin-4-yl biphenyl-2-ylcarbamate]	0.81 nM	39.5 µg/kg	0.0087 mg/kg	–	–
CN(CCN1CCC(OC(=O)Nc2ccccc2-c2ccccc2)CC1)C(=O)CCN(C)c1ccc(C(=O)N(C)CCCN(C)C(=O)CO[C@H]2Cc3ccccc3C23CCN(CC[C@@]2(c4ccc(F)cc4)CN(C(=O)c4cc(C(F)(F)F)cc(C(F)(F)F)c4)CO2)CC3)cc1 [Example 95, 1-{2-[(N-{4-[{3-[({[(2S)-1′-{2-[(5R)-3-[3,5-Bis(trifluoromethyl)benzoyl]-5-(4-fluorophenyl)-1,3-oxazolidin-5-yl]ethyl}-2,3-dihydrospiro[indene-1,4′-piperidin]-2-yl]oxy}acetyl)(methy)amino]propyl}(methyl)carbamoyl]phenyl}-N-methyl-β-alanyl)(methyl)amino]ethyl}piperidin-4-yl biphenyl-2-ylcarbamate]	–	46.2 µg/kg	0.0225 mg/kg	–	1.4 nM
Cc1nc(NCCCCCC(=O)N(C)CCN2CCC(OC(=O)Nc3ccccc3-c3ccccc3)CC2)sc1C(=O)N(C)CCCN(C)C(=O)CO[C@H]1Cc2ccccc2C12CCN(CC[C@@]1(c3ccc(F)cc3)CN(C(=O)c3cc(C(F)(F)F)cc(C(F)(F)F)c3)CO1)CC2 [Example 105, 1-(2-{[6-({5-[{3-[({[(2S)-1′-{2-[(5R)-3-[3,5-Bis(trifluoromethyl)benzoyl]-5-(4-fluorophenyl)-1,3-oxazolidin-5-yl]ethyl}-2,3-dihydrospiro[indene-1,4′-piperidin]-2-yl]oxy}acetyl)(methyl)amino]propyl}(methyl)carbamoyl]-4-methyl-1,3-thiazol-2-yl}amino)hexanoyl](methyl)amino}ethyl)piperidin-4-yl biphenyl-2-ylcarbamate trihydrochloride]	2.1 nM	40.0 µg/kg	0.0273 mg/kg	–	–
CN(CCN1CCC(OC(=O)Nc2ccccc2-c2ccccc2)CC1)C(=O)CCCCCNc1ccc(C(=O)N2CCCN(C(=O)CO[C@H]3Cc4ccccc4C34CCN(CC[C@@]3(c5ccc(F)cc5)CN(C(=O)c5cc(C(F)(F)F)cc(C(F)(F)F)c5)CO3)CC4)CC2)cc1 [Example 110, 1-{2-[{6-[(4-{[4-({[(2S)-1′-{2-[(5R)-3-[3,5-Bis(trifluoromethyl)benzoyl]-5-(4-fluorophenyl)-1,3-oxazolidin-5-yl)ethyl}-2,3-dihydrospiro[indene-1,4′-piperidin]-2-yl]oxy}acetyl)-1,4-diazepan-1-yl]carbonyl}phenyl)amino]hexanoyl}(methyl)amino]ethyl}piperidin-4-yl biphenyl-2-ylcarbamate trihydrochloride]	1.7 nM	31.8 µg/kg	0.0174 mg/kg	–	–
